# Measurements: BindingDB's records for doi:10.1124/jpet.104.081497 (Katholieke Universiteit Leuven, 2005)
# Target: T1, Promotilin (Homo sapiens, UniProt P12872)
# T1 sequence (P12872 whole entry): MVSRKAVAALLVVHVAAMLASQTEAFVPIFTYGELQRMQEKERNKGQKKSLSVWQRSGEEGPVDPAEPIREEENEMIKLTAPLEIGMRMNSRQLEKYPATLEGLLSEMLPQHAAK
row,Compound,Ki [nM]
1,CC[C@H]1OC(=O)[C@H](C)[C@@H](O[C@H]2C[C@@](C)(OC)C[C@H](C)O2)[C@H](C)[C@@H](O[C@@H]2O[C@H](C)C[C@H](N(C)CC)[C@H]2O)[C@@]2(C)CC(C)=C(O2)[C@H](C)[C@@H](O)[C@H]1C [ABT-229],58.9
2,CC[C@H]1OC(=O)[C@H](C)[C@@H](O[C@H]2C[C@@](C)(OC)[C@@H](O)[C@H](C)O2)[C@H](C)[C@@H](O[C@@H]2O[C@H](C)C[C@H](N(C)C)[C@H]2O)[C@](C)(O)C[C@@H](C)C(=O)[C@H](C)[C@@H](O)[C@]1(C)O [CAS_114-07-8],3090
3,CC[C@H]1OC(=O)[C@H](C)[C@@H](O[C@H]2C[C@@](C)(OC)[C@@H](O)[C@H](C)O2)[C@H](C)[C@@H](O[C@@H]2O[C@H](C)C[C@H](N(C)C)[C@H]2O)[C@@]2(C)CC(C)=C(O2)[C@H](C)[C@@H](O)[C@]1(C)O [Erythromycin-A enol ether],257
4,C#CCN(C)C1CC(C)OC(OC2C(C)C(OC3CC(C)(OC)C(O)C(C)O3)C(C)C(=O)OC(CC)C(C)(O)C(O)C(C)C(=O)C(C)CC2(C)O)C1O (stereo unspecified) [ME36],> 10000

# Continued, values first:
row,Ki [nM],Compound
1,2.82,CC[C@H](C)[C@H](NC(=O)[C@@H]1CCCN1C(=O)[C@@H](NC(=O)[C@@H](N)Cc1ccccc1)C(C)C)C(=O)N[C@@H](Cc1ccccc1)C(=O)N[C@H](C(=O)N[C@@H](Cc1ccc(O)cc1)C(=O)NCC(=O)N[C@@H](CCC(=O)O)C(=O)N[C@@H](CC(C)C)C(=O)N[C@@H](CCC(N)=O)C(=O)N[C@@H](CCCNC(=N)N)C(=O)N[C@@H](CCSC)C(=O)N[C@@H](CCC(N)=O)C(=O)N[C@@H](CCC(=O)O)C(=O)N[C@@H](CCCCN)C(=O)N[C@@H](CCC(=O)O)C(=O)N[C@@H](CCCNC(=N)N)C(=O)N[C@@H](CC(N)=O)C(=O)N[C@@H](CCCCN)C(=O)NCC(=O)N[C@@H](CCC(N)=O)C(=O)O)[C@@H](C)O [CAS_52906-92-0]
2,324,CC[C@H]1OC(=O)[C@H](C)[C@@H](O[C@H]2C[C@@](C)(OC)[C@@H](O)[C@H](C)O2)[C@H](C)[C@@H](O[C@@H]2O[C@H](C)C[C@H](N(C)C)[C@H]2O)[C@]2(C)CC(C)=C(O2)[C@H](C)[C@@H](O)[C@@H]1C [EM-B enolether]
